Test results as given in patent US12297190B2, “Modulators of STING (stimulator of interferon genes)” (PFIZER INC., priority 2019, dated 2025).

Legend:
R232-STING = R232-STING (Homo sapiens, UniProt Q86WV6, H232R); assay: biochemical
STING [1] = target: T1, STING (Homo sapiens, UniProt Q86WV6, G230A/H232R/R293Q/R71H); assay: Phosphorylation of IRF3: THP-1 cell ELISA; format: cell-based; settings: THP-1 cells, 3 hours incubation, phospho-IRF3 ELISA; read-out: THP-1 CELL P-IRF3 EC50
T1 construct: host or cells: THP-1 and THP-1 Lucia ISG cells
Experimental: Phosphorylation of IRF3: THP-1 Cell ELISA
STING activation results in recruitment of TBK1 and phosphorylation of IRF3 transcription factor before induction of type I interferons. THP-1 cells (InvivoGen) were grown in RPMI media plus 2 mM L-glutamine, 10% fetal bovine serum, and 0.5% Pen-Strep. 10^4 cells were seeded in 96-well plates and incubated overnight 37° C., 5% CO2. Compounds serial diluted compounds in media (final 0.5% DMSO) were added to the cells and incubated for an additional 3 hours. After incubation, the plates were centrifuged at 2000 rpm for 5 min. The cells were then lysed in 100 μl RIPA buffer and vortexed for 30 minutes at room temperature. 25 μl of lysate was then transferred to clear polystyrene High Bind plates that had been previously coated with mouse anti-human IRF-3 capture antibody (BD Pharmigen), and allowed to incubate at 4° C. for 16 hours. The plates were then washed and incubated with rabbit anti-phospho-IRF3 detection antibody (Cell Signaling Technologies) for 1.5 hours at room temperature. Finally, an HRP-linked secondary antibody (Cell Signaling Technologies) was added for 30 min before the Glo Substrate Reagent (R&D Systems) was used generate the luminescent signal. The signal was measured using a Perkin-Elmer Envision microplate reader. Data were normalized to “% effect” with a positive control STING agonist that was known to maximize the phosphorylated IRF3 signal and the negative control was DMSO.

STING [2] = target: T1, STING; assay: Interferon-β induction: THP-1 Lucia ISG reporter cell line; format: cell-based; settings: THP-1 Lucia ISG cells, 24 hours incubation, luciferase reporter; read-out: THP-1 Lucia ISG Cells IFN-β EC50
Experimental: Interferon-β Induction: THP-1 ISG Reporter Cell Line
THP-1 Lucia™ ISG cells (InvivoGen) express the secreted luciferase “Lucia” reporter gene under the control of an IRF-inducible composite promotor comprised of five interferon response elements. THP-1 Lucia™ ISG cells were grown in RPMI media plus 2 mM L-glutamine, 10% fetal bovine serum, and 0.5% Pen-Strep. Hygromycin B and Zeocin were present to maintain stable transfection. 10^4 cells were seeded in 96-well plates and incubated overnight 37° C., 5% CO2. 50 μL of serial diluted compounds in media (final 0.5% DMSO) was and incubated for an additional 24 hours. After incubation, the plates were centrifuged at 2000 rpm for 10 min. 50 μl of cell culture supernatant of each well was transferred to a white, opaque 96-well plate. One pouch of QUANTI-Luc™ (InvivoGen) powder was prepared in 25 mL of endotoxin-free water and 100 μL of prepared warm QUANTI-Luc solution were added to each well containing the supernatant. The luminescence signal was measured using a Perkin-Elmer Envision microplate reader. Data were normalized to “% effect” with a positive control STING agonist that was known to maximize the luciferase signal and the negative control DMSO.

T1 sequence (Q86WV6 whole entry R71H/G230A/H232R/R293Q): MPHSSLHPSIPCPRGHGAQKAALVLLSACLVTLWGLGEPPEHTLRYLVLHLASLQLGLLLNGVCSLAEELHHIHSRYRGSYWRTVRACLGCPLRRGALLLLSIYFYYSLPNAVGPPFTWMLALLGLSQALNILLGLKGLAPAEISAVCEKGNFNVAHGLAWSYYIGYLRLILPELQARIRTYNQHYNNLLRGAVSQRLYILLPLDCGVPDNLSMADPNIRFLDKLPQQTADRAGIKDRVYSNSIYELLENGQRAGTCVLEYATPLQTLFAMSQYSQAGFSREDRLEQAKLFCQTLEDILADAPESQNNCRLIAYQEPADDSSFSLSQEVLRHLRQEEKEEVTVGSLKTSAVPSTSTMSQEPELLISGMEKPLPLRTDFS
Chain of R232-STING (Q86WV6 155-341 H232R): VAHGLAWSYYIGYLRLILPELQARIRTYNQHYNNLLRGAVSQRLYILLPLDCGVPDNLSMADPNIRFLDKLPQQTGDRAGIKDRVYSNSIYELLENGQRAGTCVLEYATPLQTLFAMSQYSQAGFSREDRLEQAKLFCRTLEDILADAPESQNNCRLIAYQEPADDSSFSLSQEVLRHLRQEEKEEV

Structure (SMILES)	Ki (R232-STING)	EC50 (STING [1])	EC50 (STING [2])
CCn1nc(C)cc1-c1n[nH]c(-c2cc(C(N)=O)cc3c2cnn3CCN2CCC(F)(F)CC2)n1 [Example M02]	278 nM	16600 nM	22600 nM
CCn1nc(C)cc1-c1n[nH]c(-c2c(F)c(C(N)=O)cc3c2cnn3C)n1 [Example E01, 4-[3-(1-ethyl-3-methyl-1H-pyrazol-5-yl)-1H-1,2,4-triazol-5-yl]-5-fluoro-1-methyl-1H-indazole-6-carboxamide]	28.7 nM	640 nM	650 nM
CCn1nc(C)c(Cl)c1-c1nc(-c2cc(C(N)=O)cc3c2cnn3C)n[nH]1 [Example C04, 4-[5-(4-chloro-1-ethyl-3-methyl-1H-pyrazol-5-yl)-1H-1,2,4-triazol-3-yl]-1-methyl-1H-indazole-6-carboxamide]	13.3 nM	250 nM	240 nM
CCn1nc(C)c(F)c1-c1nc(-c2nc(C(N)=O)cc3c2cnn3C)c(CN)s1 [Example S01, 4-[5-(aminomethyl)-2-(1-ethyl-4-fluoro-3-methyl-1H-pyrazol-5-yl)-1,3-thiazol-4-yl]-1-methyl-1H-pyrazolo[4,3-c]pyridine-6-carboxamide]	11.5 nM	1300 nM	2300 nM
CCn1nc(C)cc1-c1n[nH]c(-c2cc(C(N)=O)cc3c2cnn3CC(=O)O)n1 [Example P01, {6-carbamoyl-4-[3-(1-ethyl-3-methyl-1H-pyrazol-5-yl)-1H-1,2,4-triazol-5-yl]-1H-indazol-1-yl}acetic acid]	241 nM	75600 nM	≥ 100000 nM
CCn1nc(C)cc1-c1n[nH]c(-c2cc(C(N)=O)cc3c2cnn3C)n1 [Example A01, 4-[3-(1-ethyl-3-methyl-1H-pyrazol-5-yl)-1H-1,2,4-triazol-5-yl]-1-methyl-1H-indazole-6-carboxamide]	25.1 nM	920 nM	1020 nM
CCn1nc(C)c(F)c1-c1nc(-c2nc(C(N)=O)cc3c2cnn3CC(CO)CO)n(C)n1 [Example Y01, 4-[3-(1-ethyl-4-fluoro-3-methyl-1H-pyrazol-5-yl)-1-methyl-1H-1,2,4-triazol-5-yl]-1-[3-hydroxy-2-(hydroxymethyl)propyl]-1H-pyrazolo[4,3-c]pyridine-6-carboxamide]	27.2 nM	7100 nM	7340 nM
CCn1cc2c(-c3nc(-c4cc(C)nn4CC)n[nH]3)cc(C(N)=O)cc2n1 [Example B02, 2-ethyl-4-[3-(1-ethyl-3-methyl-1H-pyrazol-5-yl)-1H-1,2,4-triazol-5-yl]-2H-indazole-6-carboxamide]	46 nM	8000 nM	6330 nM
Cc1cc(-c2nc(-c3nc(C(N)=O)cc4c3cnn4C)c(CN)s2)n(CCCO)n1 [Example AF01, 4-{5-(aminomethyl)-2-[1-(3-hydroxypropyl)-3-methyl-1H-pyrazol-5-yl]-1,3-thiazol-4-yl}-1-methyl-1H-pyrazolo[4,3-c]pyridine-6-carboxamide]	138 nM	5950 nM	5220 nM
Cc1cc(-c2nc(-c3nc(C(N)=O)cc4c3cnn4C)n(C)n2)n(CCC(=O)O)n1 [Example C09, 3-{5-[5-(6-carbamoyl-1-methyl-1H-pyrazolo[4,3-c]pyridin-4-yl)-1-methyl-1H-1,2,4-triazol-3-yl]-3-methyl-1H-pyrazol-1-yl}propanoic acid]	1.4 nM	15100 nM	12300 nM

Results, then the molecule that gave them:

Ki (R232-STING)	EC50 (STING [1])	EC50 (STING [2])	Structure (SMILES)
722 nM	> 100000 nM	> 100000 nM	CCn1nc(C)c(F)c1-c1n[nH]c(-c2cc(C(N)=O)cc3c2cnn3CCCN)n1 [YY12, 1-(3-aminopropyl)-4-[3-(1-ethyl-4-fluoro-3-methyl-1H-pyrazol-5-yl)-1H-1,2,4-triazol-5-yl]-1H-indazole-6-carboxamide]
491 nM	> 33300 nM	> 33300 nM	CCn1nc(C)cc1-c1n[nH]c(-c2cc(C(N)=O)cc3c2cnn3CCN2CCOC(C)C2)n1 (stereo not drawn) [YY22, 4-[3-(1-ethyl-3-methyl-1H-pyrazol-5-yl)-1H-1,2,4-triazol-5-yl]-1-[2-(2-methylmorpholin-4-yl)ethyl]-1H-indazole-6-carboxamide]
396 nM	> 100000 nM	> 100000 nM	Cc1nn(CCC(=O)O)c(-c2n[nH]c(-c3cc(C(N)=O)cc4c3cnn4C)n2)c1Cl [YY05, 3-{5-[5-(6-carbamoyl-1-methyl-1H-indazol-4-yl)-1H-1,2,4-triazol-3-yl]-4-chloro-3-methyl-1H-pyrazol-1-yl}propanoic acid]
84.8 nM	> 100000 nM	> 100000 nM	CCn1nc(C)cc1-c1n[nH]c(-c2cc(C(N)=O)cc3c2cnn3CCCC(=O)O)n1 [YY02, 4-{6-carbamoyl-4-[3-(1-ethyl-3-methyl-1H-pyrazol-5-yl)-1H-1,2,4-triazol-5-yl]-1H-indazol-1-yl}butanoic acid]
529 nM	> 100000 nM	> 100000 nM	CCn1nc(C)cc1-c1nnc(-c2cc(C(N)=O)cc3c2cnn3CCN2CCC(OC)CC2)[nH]1 [YY11, 4-[5-(1-ethyl-3-methyl-1H-pyrazol-5-yl)-4H-1,2,4-triazol-3-yl]-1-[2-(4-methoxypiperidin-1-yl)ethyl]-1H-indazole-6-carboxamide]
490 nM	> 33300 nM	> 33300 nM	CCn1nc(C)cc1-c1n[nH]c(-c2cc(C(N)=O)cc3c2cnn3CCN2CCS(=O)(=O)CC2)n1 [YY27, 1-[2-(1,1-dioxo-1lambda~6~-thiomorpholin-4-yl)ethyl]-4-[3-(1-ethyl-3-methyl-1H-pyrazol-5-yl)-1H-1,2,4-triazol-5-yl]-1H-indazole-6-carboxamide]
41.6 nM	> 13300 nM	> 33300 nM	CCn1nc(CO)cc1-c1n[nH]c(-c2nc(C(N)=O)cc3c2cnn3C)n1 [YY30, 4-{3-[1-ethyl-3-(hydroxymethyl)-1H-pyrazol-5-yl]-1H-1,2,4-triazol-5-yl}-1-methyl-1H-pyrazolo[4,3-c]pyridine-6-carboxamide]
184 nM	> 11100 nM	6250 nM	Cc1nn(CCCN)c(-c2n[nH]c(-c3nc(C(N)=O)cc4c3cnn4C)n2)c1O [Example AH01, 4-{3-[1-(3-aminopropyl)-4-hydroxy-3-methyl-1H-pyrazol-5-yl]-1H-1,2,4-triazol-5-yl}-1-methyl-1H-pyrazolo[4,3-c]pyridine-6-carboxamide]
431 nM	> 100000 nM	> 100000 nM	CCn1nc(C)cc1-c1nnc(-c2cc(C(N)=O)cc3c2cnn3C2CC3CNCC3C2)[nH]1 (stereo not drawn) [YY13, 4-[5-(1-ethyl-3-methyl-1H-pyrazol-5-yl)-4H-1,2,4-triazol-3-yl]-1-(octahydrocyclopenta[c]pyrrol-5-yl)-1H-indazole-6-carboxamide]
7.2 nM	> 11100 nM	> 10000 nM	Cc1nn(CCC(=O)O)c(-c2n[nH]c(-c3nc(C(N)=O)cc4c3cnn4C)n2)c1O [YY32, 3-{5-[5-(6-carbamoyl-1-methyl-1H-pyrazolo[4,3-c]pyridin-4-yl)-1H-1,2,4-triazol-3-yl]-4-hydroxy-3-methyl-1H-pyrazol-1-yl}propanoic acid]
237 nM	> 100000 nM	> 100000 nM	CCn1nc(C)cc1-c1nnc(-c2cc(C(N)=O)cc3c2cnn3CC2(C)CC(OC)CN2C)[nH]1 (stereo not drawn) [YY10, 4-[5-(1-ethyl-3-methyl-1H-pyrazol-5-yl)-4H-1,2,4-triazol-3-yl]-1-[(4-methoxy-1,2-dimethylpyrrolidin-2-yl)methyl]-1H-indazole-6-carboxamide]
484 nM	> 100000 nM	> 100000 nM	CCn1nc(C)cc1-c1nnc(-c2cc(C(N)=O)cc3c2cnn3[C@@H]2CCNC2)[nH]1 [YY14, 4-[5-(1-ethyl-3-methyl-1H-pyrazol-5-yl)-4H-1,2,4-triazol-3-yl]-1-[(3R)-pyrrolidin-3-yl]-1H-indazole-6-carboxamide]
141 nM	> 100000 nM	> 100000 nM	CCn1nc(C)cc1-c1nnc(-c2cc(C(N)=O)cc3c2cnn3CCN2CCC(C#N)CC2)[nH]1 [YY09, 1-[2-(4-cyanopiperidin-1-yl)ethyl]-4-[5-(1-ethyl-3-methyl-1H-pyrazol-5-yl)-4H-1,2,4-triazol-3-yl]-1H-indazole-6-carboxamide]
